Data published in EPA's CvTdb concentration-time database.

Columns and labels:
Rat [1] = assay: concentration in plasma after dosing
Rat [2] = assay: concentration in thymus after dosing; settings: dosed: Bis 2-Chloroethoxy Methane, 20 mg/kg, iv
Rat [3] = assay: concentration in plasma after dosing; settings: 4 h; dosed: Bis 2-Chloroethoxy Methane; 20 mg/kg; iv; Female; F344
Rat [4] = assay: concentration in thymus after dosing; settings: 10 min; dosed: Bis 2-Chloroethoxy Methane; 20 mg/kg; iv; Male; F344
Rat [5] = assay: concentration in liver after dosing; settings: dosed: Bis 2-Chloroethoxy Methane, 20 mg/kg, iv, F344
Rat [6] = assay: concentration in heart after dosing; settings: dosed: Bis 2-Chloroethoxy Methane, 20 mg/kg, iv
Rat [7] = assay: concentration in plasma after dosing; settings: 10 min; dosed: Bis 2-Chloroethoxy Methane; 20 mg/kg; iv; Male; F344

Cc1cccc(Nc2cc(Cl)nc(SCC(=O)O)n2)c1C
concentration in plasma [ng/mL], Rat [1], Male, Sprague-Dawley
Settings | dosed: Wyeth-14643, 1.0 mg/kg | dosed: Wyeth-14643, 2.0 mg/kg | dosed: Wyeth-14643, 5.0 mg/kg
0.25 h, iv | – | 8890 | –
0.25 h, oral | 480 | 941 | 2340
0.5 h, iv | – | 4960 | –
0.5 h, oral | 493 | 1350 | 3240
1 h, iv | – | 2670 | –
1 h, oral | 548 | 1010 | 4080
2 h, iv | – | 682 | –
2 h, oral | 373 | 466 | 1930
2.5 min, iv | – | 28300 | –
3 h, iv | – | 253 | –
3 h, oral | 145 | 972 | –
4 h, iv | – | 218 | –
4 h, oral | – | 273 | 1050
5 h, oral | 357 | 312 | –
5 min, iv | – | 20700 | –
5 min, oral | – | 270 | 520
6 h, oral | – | 118 | 506
7 h, oral | 124 | – | –
8 h, oral | – | 305 | 421
24 h, oral | – | – | 129

ClCCOCOCCCl [Bis 2-Chloroethoxy Methane]
concentration in plasma [ng/mL], Rat [1], dosed: Bis 2-Chloroethoxy Methane, iv
Settings | Female | Male
1 h, 20 mg/kg, F344 | 1380 | 1400
1 h, 40 mg/kg, Harlan Sprague Dawley | – | 3850
2 h, 20 mg/kg, F344 | 202 | 336
2 h, 40 mg/kg, Harlan Sprague Dawley | – | 648
3 h, 20 mg/kg, F344 | 82.8 | 119
3 h, 40 mg/kg, Harlan Sprague Dawley | – | 333
4 h, 20 mg/kg, F344 | 79 | 117
4 h, 40 mg/kg, Harlan Sprague Dawley | – | 139
5 h, 20 mg/kg, F344 | 25.4 | 32.6
5.333 h, 40 mg/kg, Harlan Sprague Dawley | – | 74.6
6 h, 20 mg/kg, F344 | 10.2 | 28
6.667 h, 40 mg/kg, Harlan Sprague Dawley | – | 45.9
7 h, 20 mg/kg, F344 | – | 16
8 h, 20 mg/kg, Harlan Sprague-Dawley | 11.2 | –
8 h, 40 mg/kg, Harlan Sprague Dawley | – | 15.7
10 min, 20 mg/kg, F344 | 9580 | 10400
10 min, 40 mg/kg, Harlan Sprague Dawley | – | 23400
20 min, 20 mg/kg, F344 | 5400 | 4840
20 min, 40 mg/kg, Harlan Sprague Dawley | – | 10200
40 min, 20 mg/kg, F344 | 2110 | 2640
40 min, 40 mg/kg, Harlan Sprague Dawley | – | 7610

Settings | concentration in heart, Rat [6] [ng/g] | concentration in thymus, Rat [2] [ng/g]
1 h, Female, F344 | 1530 | 2600
1 h, Male, F344 | 1400 | 3100
2 h, Female, F344 | 338 | 712
2 h, Male, F344 | 466 | 783
3 h, Female, F344 | 123 | 199
3 h, Male, F344 | 179 | 305
4 h, Female, F344 | 53.5 | 52.4
4 h, Male, F344 | 57.5 | 72.9
5 h, Female, F344 | 38.7 | 62.4
5 h, Male, F344 | 47.8 | 77.9
6 h, Female, F344 | 31.7 | 48.8
6 h, Male, F344 | 31.5 | 29.6
7 h, Female, F344 | – | 26.6
7 h, Male, F344 | 21.1 | 36
8 h, Female, F344 | – | 16.4
8 h, Female, Harlan Sprague-Dawley | 13.3 | 18.1
10 min, Female, F344 | 11300 | 33300
10 min, Male, F344 | 12200 | 66700
20 min, Female, F344 | 6050 | 22300
20 min, Male, F344 | 6780 | 13900
40 min, Female, F344 | 4450 | 12400
40 min, Male, F344 | 7060 | 7360

Settings | concentration in plasma [ng/mL] | concentration in thymus [ng/g]
Rat [3] | 86.2 | –
Rat [4] | – | 34400
Rat [7] | 9480 | –

concentration in liver [ng/g], Rat [5]
Settings | 1 h | 2 h | 3 h | 4 h | 5 h | 6 h | 10 min | 20 min | 40 min
Female | 526 | 65.2 | – | – | – | – | 1570 | 2310 | 662
Male | 1620 | 640 | 121 | 66.5 | 31.1 | 26.2 | 3090 | 2860 | 4290
